Data: PMC5581131, “The novel sphingosine-1-phosphate receptors antagonist AD2900 affects lymphocyte activation and inhibits T-cell entry into the lymph nodes” (Oncotarget, 2017)

Assays:
[1] = parameters: method as in unpublished data; details: previous studies; ref unpublished data; cited from earlier work
[2] = test system: C57BL/6 mice; assay: T-cell subpopulations (naive, Tcm-like, Tef/em-like) in blood, spleen and lymph nodes, FACS; type: in vivo, mouse
Experimental: We have shown that AD2900 has a unique effect on T-cell distribution in mice. Since T-cell subpopulations such as naïve T cells, central memory T cells (Tcm), and effector/effector memory T cells (Tef/em) have designated roles in the immune response, the influence of AD2900 on the localization of these subpopulations was investigated. The analysis of T-cell subpopulations was performed by FACS using antibodies against commonly accepted surface markers. Some of the molecules that we used as markers are involved in T-cell migration, and their expression can be affected by our treatment. […] Therefore, we refer to the CCR7-CD44+ T-cell population as Tef/em-like cells and to the CCR7+ CD44+ (Figure 6) or CD44+ CD62L+ (Supplementary Figure 4B) T-cell population as Tcm-like cells. The calculated cell number of the different subpopulations in control mice is shown in the left panel of Figure 6.
Figure 6 AD2900 treatment influences the distribution of mice T-cell populations in the blood, spleen, and peripheral lymph nodes C57BL/6 mice were orally administered with AD2900 or FTY720, as shown in Figure 4. Leukocytes from blood, spleen, and pLNs were collected and stained with TCR-β, CD44, and CCR7 fluorescent antibodies and then analyzed by FACS analysis. The percentages of CCR7+ CD44+ Tcm-like cells (left panel), CCR7-CD44+ Tef/em-like cells (central panel), and CCR7 + CD44-naive T cells (right panel) of the total T-cell population (TCR-β+) in blood (A), spleen (B), and pLNs (C) are shown. All the significances are compared to untreated healthy mice. Results summarize three independent experiments. Results of Student’s t-test:*(P < 0.05, two-tailed test), ** (P < 0.01, two-tailed test), *** (P < 0.001, two-tailed test), **** (P < 0.0001, two-tailed test).
Murine lymphocytes: The phenotype of murine lymphocytes was analyzed by flow cytometry using anti-CD3e-FITC, anti-CD19-PB, anti-CCR7-APC, anti-CD44-FITC, anti-CD62L-APC, and anti-TCR-β-PB (Biolegend, CA, USA).
C57BL/6 female mice aged 7–8 weeks were obtained from Harlan Laboratories (Jerusalem, Israel). The animal study was conducted under appropriate conditions and was approved by the Institutional Animal Care and Use Committee of the Hebrew University of Jerusalem in accordance with the national laws and regulations for the protection of animals. AD2900 was dissolved in 10% BSA (MP Biomedicals, CA, USA) in DDW at 1 mg/ml and then further diluted in 200 ml water to get final concentrations at 1.8, 2.7, or 3.6 mg/l. AD2900 and FTY720 were supplied ad libitum to the mice for 2 days or 7 days. At the end of the experiment, blood was collected, and the mice were sacrificed and tissues (lymph nodes and spleen) were harvested.

[3] = molecular target: T1, S1P2 (Homo sapiens, UniProt O95136); assay: S1P2 agonist test, S1P2 CRE-bla CHO cells; type: cell-based; details: S1P2 CRE-BLA CHO cell line
T1 construct: expressed in transfected cells; host or cells: S1P2 CRE-bla CHO cells
T1 sequence (O95136 whole entry): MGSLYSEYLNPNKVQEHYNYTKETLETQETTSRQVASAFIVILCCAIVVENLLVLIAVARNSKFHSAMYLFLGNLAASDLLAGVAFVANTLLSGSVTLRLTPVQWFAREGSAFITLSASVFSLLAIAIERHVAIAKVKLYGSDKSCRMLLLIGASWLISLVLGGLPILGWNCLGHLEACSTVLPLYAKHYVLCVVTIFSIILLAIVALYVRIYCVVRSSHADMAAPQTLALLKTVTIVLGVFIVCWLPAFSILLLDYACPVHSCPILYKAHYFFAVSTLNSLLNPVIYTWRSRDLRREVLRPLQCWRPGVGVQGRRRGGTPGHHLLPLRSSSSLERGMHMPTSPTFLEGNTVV
Experimental: Since AD2900 is a sphingolipid analogue with properties that resemble those of S1P, we intended to examine its ability to interact with the S1P receptors. To delineate whether AD2900 can function as an agonistic or antagonistic compound to any of the S1P receptors, we used a high-throughput screening cell-based assay, employing cell lines stably transfected with human S1P receptors 1, 2, 3, 4, or 5 [37]. In this experiment, a compound with an IC50 or EC50 value ≤10 μM for a certain S1P receptor is considered active as an antagonist or an agonist, respectively. The results illustrate that AD2900 acts as an antagonist to all S1P receptors (Table 1, Supplementary Figure 3). […] No agonist activation was evident.
The S1P1 agonist test and S1P2, S1P3, S1P4, and S1P5 agonist and antagonist tests were conducted as previously described using S1P1 CRE-bla CHO cells, S1P2 CRE-bla CHO cells, S1P3 NFAT-bla CHO cells, Tango™ S1P4 (EDG6)-bla U-2 OS cells, and Tango™ S1P5 ([…])-bla U-2 OS cells. The S1P1 antagonist assay was carried out according to the manufacturer’s instructions using a Tango™ S1P1 (EDG1)-bla U-2 OS Cell-Based Assay (Invitrogen, NY, USA).

[4] = oral, as in Figure 4, % of total T cells

For `CCCCCCCCCCCCCCCCNC(CO)(CO)CO` [AD2900], the “lethal dose 50% (LD50)” value [1] is listed as “above 100 mg/kg”, the “Tcm-like cells in the blood and lymph nodes” value ([2]; compared to control) is listed as “significantly downregulated” and the “percentage of Tcm-like cells in the spleen” value ([2]; compared to control) is listed as “significantly upregulated”. The “percentage of naïve T-cell population among all T cells in the lymph nodes” value ([2]; compared with the untreated condition) was “remained the same”, the “upregulation of the percentage of Tef/em-like cells in the blood” value ([2]; oral, as in Figure 4) was 48% ± 1% and the “naïve T cells (CCR7+CD44-) reduced, mean of up to, of that in the control, in the blood” value [2, 4] was 32% ± 6%. The “naïve T cells (CCR7+CD44-) reduced, of that in the control, in the spleen” value [2, 4] was 38% ± 12% and the EC50 [3] was greater than 50 µM.
